Reference: PMC3145970, “Specific CLK Inhibitors from a Novel Chemotype for Regulation of Alternative Splicing” (Chemistry & Biology, 2011)
Read-outs that look alike come from different tables or passages of the source.

What was measured:
Assay in all cases: Thermal stability shift assay
Type in all cases: binding
ALK2 = target: T1, ALK2 (Homo sapiens, UniProt Q04771); details: read-out: Tm shift ALK2
T1 sequence (Q04771 21-509): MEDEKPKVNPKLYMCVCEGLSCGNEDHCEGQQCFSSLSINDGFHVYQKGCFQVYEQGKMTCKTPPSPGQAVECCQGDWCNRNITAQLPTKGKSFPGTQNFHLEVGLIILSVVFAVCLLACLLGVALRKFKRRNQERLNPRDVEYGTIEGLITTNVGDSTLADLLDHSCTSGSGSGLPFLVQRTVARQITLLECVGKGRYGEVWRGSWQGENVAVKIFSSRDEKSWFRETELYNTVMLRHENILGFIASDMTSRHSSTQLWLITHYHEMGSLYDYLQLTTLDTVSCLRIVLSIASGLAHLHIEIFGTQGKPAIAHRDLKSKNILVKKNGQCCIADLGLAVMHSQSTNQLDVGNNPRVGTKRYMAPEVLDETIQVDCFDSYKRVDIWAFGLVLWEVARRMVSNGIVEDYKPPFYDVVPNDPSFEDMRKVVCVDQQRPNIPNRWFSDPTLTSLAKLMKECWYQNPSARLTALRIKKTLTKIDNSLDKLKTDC
Method: (§1) Thermal denaturation experiments were carried out in an Mx3005p real-time PCR machine (Agilent) using a protein concentration of 2 μM and an inhibitor concentration of 10 μM. Samples were buffered in 10 mM HEPES (pH 7.5), 500 mM NaCl and a 1:1000 dilution of SyproOrange (Invitrogen). The assay and data evaluation were carried out as described ([Bullock et al., 2005])

PBK = target: T2, PBK (Homo sapiens, UniProt Q96KB5); details: read-out: Tm shift PBK
T2 construct: purchased in-house (SGC Oxford thermal shift panel)
T2 sequence (Q96KB5 1-322): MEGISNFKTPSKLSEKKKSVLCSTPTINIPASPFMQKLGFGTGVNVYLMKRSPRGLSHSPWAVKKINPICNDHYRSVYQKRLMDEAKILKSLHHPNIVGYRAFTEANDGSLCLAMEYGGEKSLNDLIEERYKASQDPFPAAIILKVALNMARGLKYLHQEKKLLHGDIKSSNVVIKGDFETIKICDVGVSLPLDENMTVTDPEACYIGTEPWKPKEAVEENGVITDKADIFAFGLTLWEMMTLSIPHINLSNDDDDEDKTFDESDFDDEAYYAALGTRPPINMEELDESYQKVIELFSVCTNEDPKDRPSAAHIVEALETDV
Method: as §1

MST4 = target: T3, MST4 (Homo sapiens, UniProt Q9P289); details: read-out: Tm shift MST4
T3 construct: purchased in-house (SGC Oxford thermal shift panel)
T3 sequence (Q9P289 whole entry): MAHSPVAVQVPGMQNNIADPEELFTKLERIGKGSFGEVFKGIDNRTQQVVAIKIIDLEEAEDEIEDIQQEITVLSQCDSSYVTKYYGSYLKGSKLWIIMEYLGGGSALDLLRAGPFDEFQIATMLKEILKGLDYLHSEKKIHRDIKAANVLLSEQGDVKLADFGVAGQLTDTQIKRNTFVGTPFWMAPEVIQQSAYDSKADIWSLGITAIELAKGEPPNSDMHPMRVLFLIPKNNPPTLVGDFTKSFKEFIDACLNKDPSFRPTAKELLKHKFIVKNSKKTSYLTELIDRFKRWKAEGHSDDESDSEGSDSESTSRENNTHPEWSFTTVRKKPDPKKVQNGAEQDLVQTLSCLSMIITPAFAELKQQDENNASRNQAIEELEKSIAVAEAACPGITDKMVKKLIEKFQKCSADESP
Method: as §1

FGR = target: T4, FGR (Homo sapiens, UniProt P09769); details: read-out: Tm shift FGR
T4 construct: purchased in-house (SGC Oxford thermal shift panel)
T4 sequence (P09769 whole entry): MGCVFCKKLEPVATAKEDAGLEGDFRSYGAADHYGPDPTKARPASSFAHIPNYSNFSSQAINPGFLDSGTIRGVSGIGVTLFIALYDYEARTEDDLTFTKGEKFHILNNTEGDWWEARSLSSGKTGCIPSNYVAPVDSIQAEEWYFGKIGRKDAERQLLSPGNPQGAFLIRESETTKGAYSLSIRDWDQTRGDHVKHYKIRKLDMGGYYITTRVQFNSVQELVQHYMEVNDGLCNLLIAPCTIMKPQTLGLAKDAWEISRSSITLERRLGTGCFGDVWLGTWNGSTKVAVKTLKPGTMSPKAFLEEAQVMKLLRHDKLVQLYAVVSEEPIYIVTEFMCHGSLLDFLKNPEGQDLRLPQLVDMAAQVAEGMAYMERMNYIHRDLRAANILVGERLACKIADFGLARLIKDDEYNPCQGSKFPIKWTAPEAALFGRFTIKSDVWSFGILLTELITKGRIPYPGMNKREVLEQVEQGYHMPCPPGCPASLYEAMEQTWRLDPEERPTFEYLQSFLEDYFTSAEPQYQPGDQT
Method: as §1

IKKb = target: T5, IKKb (Homo sapiens, UniProt O14920); details: read-out: Tm shift IKKb
T5 construct: purchased in-house (SGC Oxford thermal shift panel)
T5 sequence (O14920 1-756): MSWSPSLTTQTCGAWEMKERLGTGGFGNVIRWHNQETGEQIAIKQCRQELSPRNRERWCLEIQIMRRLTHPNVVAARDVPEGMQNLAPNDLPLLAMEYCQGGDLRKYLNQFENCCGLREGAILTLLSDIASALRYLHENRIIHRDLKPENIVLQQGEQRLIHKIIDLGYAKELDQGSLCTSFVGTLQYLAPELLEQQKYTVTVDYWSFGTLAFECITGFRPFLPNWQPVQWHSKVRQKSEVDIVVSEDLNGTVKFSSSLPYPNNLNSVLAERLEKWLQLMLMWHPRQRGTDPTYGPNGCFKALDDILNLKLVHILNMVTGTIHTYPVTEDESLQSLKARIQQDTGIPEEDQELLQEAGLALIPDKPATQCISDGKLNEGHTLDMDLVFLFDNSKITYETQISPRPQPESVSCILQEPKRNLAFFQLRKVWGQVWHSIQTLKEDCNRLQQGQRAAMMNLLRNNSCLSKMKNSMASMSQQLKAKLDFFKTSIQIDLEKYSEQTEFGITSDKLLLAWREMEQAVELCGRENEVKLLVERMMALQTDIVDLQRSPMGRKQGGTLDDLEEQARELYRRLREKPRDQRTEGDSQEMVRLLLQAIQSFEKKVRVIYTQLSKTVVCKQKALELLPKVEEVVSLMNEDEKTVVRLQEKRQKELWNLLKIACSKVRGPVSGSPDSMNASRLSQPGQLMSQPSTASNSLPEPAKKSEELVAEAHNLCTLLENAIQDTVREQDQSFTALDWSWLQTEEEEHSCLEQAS
Method: as §1

| SMILES | ΔTm at 10 µM (ALK2) [°C] | ΔTm at 10 µM (PBK) [°C] | ΔTm at 10 µM (MST4) [°C] | ΔTm at 10 µM (FGR) [°C] | ΔTm at 10 µM (IKKb) [°C] | ΔTm at 10 µM (ALK2; inhibitor 10 μM) [°C] | ΔTm at 10 µM (PBK; inhibitor 10 μM) [°C] | ΔTm at 10 µM (MST4; inhibitor 10 μM) [°C] | ΔTm at 10 µM (FGR; inhibitor 10 μM) [°C] | ΔTm at 10 µM (IKKb; inhibitor 10 μM) [°C] |
| --- | --- | --- | --- | --- | --- | --- | --- | --- | --- | --- |
| CCOC(=O)c1c(/C(C#N)=C\N)c2ccc(Cl)c(Cl)c2n1C [KH-CB19, (E)-Ethyl 3-(2-Amino-1-Cyanovinyl)-6,7-Dichloro-1-Methyl-1H-Indole-2-Carboxylate] | 0.5 | -0.3 | 2.4 | -0.3 | -0.1 |  |  |  |  |  |
| CCOC(=O)c1c(C(C#N)=CN)c2ccc(Cl)c(Cl)c2n1C (mixture of isomers) [KH-CB20, (E/Z)-Ethyl 3-(2-Amino-1-Cyanovinyl)-6,7-Dichloro-1-Methyl-1H-Indole-2-Carboxylate] | 0.8 | -0.1 | 0.1 | 0.3 | 0.1 |  |  |  |  |  |
| NC1=NC(=O)/C(=C2\CCNC(=O)c3[nH]c(Br)cc32)N1 [Hymenialdisine, hymenialdisine, reference compound] |  |  |  |  |  | 2.1 | -0.4 | 4.6 | 0.7 | 0.7 |
| CCOC(=O)c1c(C(C#N)=CN(C)C)c2ccc(Cl)c(Cl)c2n1C (mixture of isomers) [compound 2, (E/Z)-Ethyl 6,7-Dichloro-3-[1-Cyano-2-(Dimethylamino)Vinyl]-1-Methyl-1H-Indole-2-Carboxylate] |  |  |  |  |  | -0.5 | -0.9 | -0.6 | -0.2 | 0.6 |
| Cn1c2c(Cl)c(Cl)ccc2c2c(C#N)c[nH]c(=O)c21 [compound 3, 7,8-Dichloro-9-Methyl-1-Oxo-2,9-Dihydro-1H-Pyrido[3,4-b]Indole-4-Carbonitrile] |  |  |  |  |  | 0.5 | -0.4 | 0.4 | 0.1 | 0.5 |
